Reference: ChEMBL document CHEMBL1201862, “PubChem BioAssay data set” (2004)
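1) Cells in 96-well plates. 2) Compound, 48 h, 5 concentrations. 3) Linear interpolation between surrounding doses. 4) Unreached endpoint = highest concentration. Abbreviation: GI50, concentration required for 50% inhibition of growth.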 The source made the active and inactive calls. No stated cut-off is given here; in the data, active = GI50 up to about 1.1 µM and inactive = higher.

Columns and labels:
Assay in all cases: inhibition of tumour cell growth, NCI panel, 48 h
RPMI-8226 = tested on: RPMI-8226
MCF7 = tested on: MCF7
Malme-3M = tested on: Malme-3M
Hs-578T = tested on: Hs-578T
CCRF-CEM = tested on: CCRF-CEM
HCT-116 = tested on: HCT-116
SK-OV-3 = tested on: SK-OV-3
NCI/ADR-RES = tested on: NCI/ADR-RES
HOP-18 = tested on: HOP-18
CAKI-1 = tested on: CAKI-1
SNB-19 = tested on: SNB-19
M14 = tested on: M14
SK-MEL-5 = tested on: SK-MEL-5
PC-3 = tested on: PC-3
KM12 = tested on: KM12
U-251 = tested on: U-251
HOP-62 = tested on: HOP-62
MDA-MB-231 = tested on: MDA-MB-231
MDA-MB-435 = tested on: MDA-MB-435
NCI-H23 = tested on: NCI-H23
786-0 = tested on: 786-0
OVCAR-4 = tested on: OVCAR-4
SF-539 = tested on: SF-539
DLD-1 = tested on: DLD-1
SW-620 = tested on: SW-620
SK-MEL-28 = tested on: SK-MEL-28
NCI-H460 = tested on: NCI-H460
ACHN = tested on: ACHN
HT-29 = tested on: HT-29
OVCAR-5 = tested on: OVCAR-5
RXF 631 = tested on: RXF 631
SK-MEL-2 = tested on: SK-MEL-2
A549 = tested on: A549
HCC 2998 = tested on: HCC 2998
LOX IMVI = tested on: LOX IMVI
A498 = tested on: A498
HCT-15 = tested on: HCT-15
SNB-78 = tested on: SNB-78
MOLT-4 = tested on: MOLT-4
COLO 205 = tested on: COLO 205
EKVX = tested on: EKVX
UACC-62 = tested on: UACC-62
SF-295 = tested on: SF-295
K562 = tested on: K562
HL-60 = tested on: HL-60
SR = tested on: SR
UO-31 = tested on: UO-31
IGROV-1 = tested on: IGROV-1
LXFL 529 = tested on: LXFL 529
UACC-257 = tested on: UACC-257
TK-10 = tested on: TK-10
SNB-75 = tested on: SNB-75
OVCAR-3 = tested on: OVCAR-3
SF-268 = tested on: SF-268
T47D = tested on: T47D
BT-549 = tested on: BT-549
DU-145 = tested on: DU-145
SN12C = tested on: SN12C
DMS-114 = tested on: DMS-114
RXF 393 = tested on: RXF 393
MDA-N = tested on: MDA-N
HOP-92 = tested on: HOP-92
NCI-H226 = tested on: NCI-H226
M19-MEL = tested on: M19-MEL
KM-20L2 = tested on: KM-20L2
OVCAR-8 = tested on: OVCAR-8
NCI-H522 = tested on: NCI-H522
XF498 = tested on: XF498
DMS-273 = tested on: DMS-273

Measured: GI50

Cc1nc2ccc(NCCN(C)C)c3c(=O)c4ccccc4n1c23
active: HCT-116 0.851 µM | NCI/ADR-RES 1.06 µM | PC-3 1.1 µM | MDA-MB-231 1.05 µM | SW-620 0.601 µM | NCI-H460 0.736 µM | HT-29 1.02 µM | LOX IMVI 0.9 µM | MOLT-4 0.348 µM | SR 0.439 µM | OVCAR-8 0.914 µM
inactive: RPMI-8226 2.04 µM | MCF7 3.3 µM | Malme-3M 4.14 µM | Hs-578T 2.55 µM | CCRF-CEM 1.22 µM | SK-OV-3 3.96 µM | HOP-18 3.2 µM | CAKI-1 2.76 µM | SNB-19 4.19 µM | M14 4.03 µM | SK-MEL-5 2.21 µM | KM12 2.21 µM | U-251 2.22 µM | HOP-62 1.51 µM | MDA-MB-435 2.09 µM | NCI-H23 2.97 µM | 786-0 1.68 µM | OVCAR-4 1.83 µM | SF-539 2.74 µM | DLD-1 2.74 µM | SK-MEL-28 8.22 µM | ACHN 1.52 µM | OVCAR-5 4.9 µM | RXF 631 1.74 µM | SK-MEL-2 5.47 µM | A549 1.16 µM | HCC 2998 2.96 µM | A498 3.91 µM | SNB-78 6.79 µM | COLO 205 1.17 µM | EKVX 3.05 µM | UACC-62 5.02 µM | SF-295 1.84 µM | K562 1.39 µM | HL-60 3.37 µM | UO-31 2.13 µM | IGROV-1 1.75 µM | LXFL 529 6.56 µM | UACC-257 4.65 µM | TK-10 4.08 µM | SNB-75 3.5 µM | OVCAR-3 5 µM | SF-268 3.48 µM | T47D 12.2 µM | BT-549 10.5 µM | DU-145 2.07 µM | SN12C 2.31 µM | DMS-114 5.52 µM | RXF 393 10.5 µM | MDA-N 1.66 µM | HOP-92 2.25 µM | NCI-H226 1.56 µM | M19-MEL 5.9 µM | KM-20L2 1.99 µM | NCI-H522 1.52 µM
1.25 µM: HCT-15

CC(=O)OC(OC(C)=O)c1ncccc1C(=O)OC(C)C
33.8 µM: HCT-15
inactive: Malme-3M > 100 µM | CCRF-CEM 7.26 µM | HCT-116 57.8 µM | SK-OV-3 > 100 µM | HOP-18 > 100 µM | CAKI-1 > 100 µM | SNB-19 > 100 µM | M14 > 100 µM | SK-MEL-5 38.2 µM | KM12 63.7 µM | U-251 18.3 µM | HOP-62 > 100 µM | NCI-H23 56.1 µM | 786-0 > 100 µM | OVCAR-4 > 100 µM | SF-539 56 µM | DLD-1 31.2 µM | SW-620 > 100 µM | SK-MEL-28 1.18 µM | NCI-H460 11.3 µM | ACHN > 100 µM | HT-29 33.3 µM | OVCAR-5 > 100 µM | SK-MEL-2 > 100 µM | A549 > 100 µM | HCC 2998 42.6 µM | LOX IMVI 20.9 µM | A498 > 100 µM | SNB-78 > 100 µM | MOLT-4 35.1 µM | COLO 205 47.4 µM | EKVX > 100 µM | UACC-62 > 100 µM | SF-295 42.4 µM | K562 18.9 µM | HL-60 8.65 µM | SR 15.1 µM | UO-31 61.7 µM | IGROV-1 > 100 µM | LXFL 529 78.5 µM | UACC-257 > 100 µM | TK-10 > 100 µM | SNB-75 81.8 µM | OVCAR-3 > 100 µM | SF-268 13.7 µM | XF498 > 100 µM | SN12C > 100 µM | DMS-114 > 100 µM | RXF 393 39.8 µM | HOP-92 18.2 µM | NCI-H226 > 100 µM | DMS-273 31.3 µM | M19-MEL 30.1 µM | KM-20L2 39.6 µM | OVCAR-8 > 100 µM | NCI-H522 75.7 µM

Cc1ccc([S+]([O-])c2ccccc2[N+](=O)[O-])cc1 (stereo not given)
inactive: RPMI-8226 52.8 µM | Malme-3M > 100 µM | CCRF-CEM 28.6 µM | HCT-116 > 10 µM | SK-OV-3 > 100 µM | CAKI-1 43.9 µM | SNB-19 58.3 µM | M14 > 100 µM | SK-MEL-5 70 µM | KM12 54.6 µM | U-251 48.8 µM | HOP-62 > 100 µM | NCI-H23 32.6 µM | 786-0 > 100 µM | OVCAR-4 39.1 µM | SF-539 58.5 µM | DLD-1 > 100 µM | SW-620 > 100 µM | SK-MEL-28 42.2 µM | NCI-H460 79.8 µM | ACHN > 100 µM | HT-29 69.3 µM | OVCAR-5 72.1 µM | RXF 631 35 µM | SK-MEL-2 > 100 µM | A549 70.1 µM | HCC 2998 78.9 µM | LOX IMVI 38.5 µM | A498 28.1 µM | SNB-78 > 100 µM | MOLT-4 41.3 µM | UACC-62 > 100 µM | SF-295 > 100 µM | K562 64.4 µM | HL-60 29.1 µM | SR 46 µM | UO-31 51.2 µM | IGROV-1 65.9 µM | UACC-257 > 100 µM | TK-10 > 100 µM | OVCAR-3 73.8 µM | SN12C 72.6 µM | DMS-114 36.5 µM | RXF 393 > 100 µM | HOP-92 60 µM | NCI-H226 30.5 µM | DMS-273 62.2 µM | M19-MEL 10 µM | OVCAR-8 > 100 µM | NCI-H522 33.3 µM
65 µM: HCT-15

COc1ccc(/C=C/C(=N\NC(=O)c2ccccc2)c2sc(Nc3ccc([N+](=O)[O-])cc3)nc2C)cc1OC
7.89 µM: HCT-15
inactive: Malme-3M 19.2 µM | CCRF-CEM 2.34 µM | HCT-116 7.31 µM | SK-OV-3 45.8 µM | HOP-18 27.7 µM | CAKI-1 17.7 µM | SNB-19 12.4 µM | M14 14.1 µM | KM12 7.73 µM | U-251 5.3 µM | HOP-62 18.2 µM | NCI-H23 > 10 µM | 786-0 10.5 µM | OVCAR-4 11.6 µM | SF-539 21.1 µM | DLD-1 6.27 µM | SW-620 16 µM | SK-MEL-28 21.1 µM | NCI-H460 16.5 µM | ACHN 14.7 µM | HT-29 17 µM | OVCAR-5 27.7 µM | SK-MEL-2 15.9 µM | A549 10.6 µM | HCC 2998 29.6 µM | LOX IMVI 3.75 µM | SNB-78 8.55 µM | MOLT-4 2.77 µM | COLO 205 21.3 µM | EKVX 18.6 µM | UACC-62 2.75 µM | SF-295 11.2 µM | K562 3.18 µM | HL-60 2.62 µM | SR 5.18 µM | UO-31 15.6 µM | IGROV-1 > 10 µM | LXFL 529 7.67 µM | UACC-257 12.6 µM | TK-10 29.3 µM | SNB-75 5.57 µM | OVCAR-3 23.3 µM | SF-268 13.2 µM | XF498 10.3 µM | SN12C 13.9 µM | DMS-114 15.1 µM | RXF 393 12.9 µM | NCI-H226 18.2 µM | DMS-273 12.5 µM | M19-MEL 12.6 µM | KM-20L2 8.67 µM | OVCAR-8 9.57 µM | NCI-H522 4.24 µM
active: HOP-92 < 0.01 µM
